Literature values, collected in publication PMC11129975, “A first-in-human phase I study of TAS-117, an allosteric AKT inhibitor, in patients with advanced solid tumors” (Cancer Chemotherapy and Pharmacology, 2024).
Read-outs that look alike come from different tables or passages of the source.

Experiments:
KPL-4 = conditions: oral dosing; KPL-4 (HER2 amplification, PIK3CA mutation); cited from earlier work
[1] = parameters: method as in data on file, Taiho Pharmaceutical Co., Ltd.; conditions: ref data on file, Taiho Pharmaceutical Co., Ltd., cited from earlier work
[2] = parameters: method as in data on file, Taiho Pharmaceutical Co., Ltd.; conditions: repeated dosing; ref data on file, Taiho Pharmaceutical Co., Ltd.; cited from earlier work

**Q.** For `C[C@]1(O)C[C@@](N)(c2ccc(-c3nc4n(c3-c3ccccc3)COc3ccncc3-4)cc2)C1` [TAS-117], which Antitumor activity (KPL-4) is on record?
**A.** demonstrated single-agent antitumor activity

**Q.** What about the “Highest non-severely toxic dose” value ([1]; 4-week repeated oral dose) of the same compound?
**A.** 1.2 mg/kg/day

**Q.** And the Toxicity findings ([1]; repeated dosing)?
**A.** dysregulation of carbohydrate metabolism and atrophic changes in the lymphatic/hematopoietic organs and adipocytes

**Q.** What about the Toxicity findings [2] of the same compound?
**A.** dysregulation of carbohydrate metabolism and atrophic changes in the lymphatic/hematopoietic organs and adipocytes
